The values below are quoted from earlier work in US20060105063A1, “Synergic combination of compositions containing aloe vera isolates and their therapeutic application” (priority 2004, published 2006).

SMILES strings stand for the structures. A value given as a limit tells only on which side of the number the result lay.

Series [1] deals with animals ingesting a diet composed of 20% Fucose.

`C[C@H](O)[C@@H](O)[C@@H](O)[C@H](O)C=O` [Fucose]: the “Microscopic examination of liver, kidney, pancreas and sternal bone marrow” value in series [1] (Fucose-treated rats) is reported as “no abnormalities”. In series [1] (animals ingesting a diet composed of 20% Fucose), the Oral toxicity entry was “reduce nerve conduction velocity as well as collagen production”. Under “healthy 150-pound adult”, the “Oral dose considered safe” value is recorded as not above 34 grams. Where the note is “humans”, the “Rate of excretion, mainly in the urine” value is given as “approximately 17 micrograms per minute”. Moreover, for the setting “oral, after maximum blood levels”, the “Time to elimination from the bloodstream” value was “eight to twelve”.
